Key:
Assay in all cases: Kinase profiling, 33P ATP filter binding assay
Type in all cases: biochemical
Details in all cases: 1 micromolar inhibitor concentration, read-out: percentage inhibition
[1] = biological target: PLK1 (Homo sapiens (Human), UniProt P53350)
[2] = biological target: CHK1 (Homo sapiens (Human), UniProt O14757)
[3] = biological target: MNK1 (Homo sapiens (Human), UniProt Q9BUB5)
[4] = biological target: TLK1 (Homo sapiens (Human), UniProt Q9UKI8)
[5] = biological target: p38g MAPK (Homo sapiens (Human), UniProt P53778)
[6] = biological target: IRR (Homo sapiens (Human), UniProt P14616)
[7] = biological target: BTK (Homo sapiens (Human), UniProt Q06187)
[8] = biological target: TAO1 (Homo sapiens (Human), UniProt Q7L7X3)
[9] = biological target: CK1y2 (Homo sapiens (Human), UniProt P78368)
[10] = biological target: Aurora B (Homo sapiens (Human), UniProt Q96GD4)
[11] = biological target: MST4 (Homo sapiens (Human), UniProt Q9P289)
[12] = biological target: JNK1 (Homo sapiens (Human), UniProt P45983)
[13] = biological target: PKBa (Homo sapiens (Human), UniProt P31749)
[14] = biological target: RSK2 (Homo sapiens (Human), UniProt P51812)
[15] = biological target: CDK2-Cyclin A (Homo sapiens (Human), UniProt P24941)
[16] = biological target: PAK4 (Homo sapiens (Human), UniProt O96013)
[17] = biological target: CAMKKb (Homo sapiens (Human), UniProt Q96RR4)
[18] = biological target: MEKK1 (Homo sapiens (Human), UniProt Q13233)
[19] = biological target: TESK1 (Homo sapiens (Human), UniProt Q15569)
[20] = biological target: S6K1 (Homo sapiens (Human), UniProt P23443)
[21] = biological target: ERK8 (Homo sapiens (Human), UniProt Q8TD08)
[22] = biological target: Src (Homo sapiens (Human), UniProt P12931)
[23] = biological target: PAK2 (Homo sapiens (Human), UniProt Q13177)
[24] = biological target: PKA (Homo sapiens (Human), UniProt P17612)
[25] = biological target: PIM2 (Homo sapiens (Human), UniProt Q9P1W9)
[26] = biological target: RIPK2 (Homo sapiens (Human), UniProt O43353)
[27] = biological target: PDGFRA (Homo sapiens (Human), UniProt P16234)
[28] = biological target: NEK2a (Homo sapiens (Human), UniProt P51955)
[29] = biological target: ABL (Homo sapiens (Human), UniProt P00519)
[30] = biological target: SIK3 (Homo sapiens (Human), UniProt Q9Y2K2)
[31] = biological target: MINK1 (Homo sapiens (Human), UniProt Q8N4C8)
[32] = biological target: CHK2 (Homo sapiens (Human), UniProt O96017)
[33] = biological target: PKD1 (Homo sapiens (Human), UniProt Q15139)
[34] = biological target: ERK1 (Homo sapiens (Human), UniProt P27361)
[35] = biological target: EPH-B1 (Homo sapiens (Human), UniProt P54762)
[36] = biological target: TTBK2 (Homo sapiens (Human), UniProt Q6IQ55)
[37] = biological target: SYK (Homo sapiens (Human), UniProt P43405)
[38] = biological target: HIPK2 (Homo sapiens (Human), UniProt Q9H2X6)
[39] = biological target: IKKb (Homo sapiens (Human), UniProt O14920)
[40] = biological target: IKKe (Homo sapiens (Human), UniProt Q14164)
[41] = biological target: MELK (Homo sapiens (Human), UniProt Q14680)
[42] = biological target: Aurora A (Homo sapiens (Human), UniProt O14965)

Sequence of CAMKKb (Q96RR4 whole entry, species assumed): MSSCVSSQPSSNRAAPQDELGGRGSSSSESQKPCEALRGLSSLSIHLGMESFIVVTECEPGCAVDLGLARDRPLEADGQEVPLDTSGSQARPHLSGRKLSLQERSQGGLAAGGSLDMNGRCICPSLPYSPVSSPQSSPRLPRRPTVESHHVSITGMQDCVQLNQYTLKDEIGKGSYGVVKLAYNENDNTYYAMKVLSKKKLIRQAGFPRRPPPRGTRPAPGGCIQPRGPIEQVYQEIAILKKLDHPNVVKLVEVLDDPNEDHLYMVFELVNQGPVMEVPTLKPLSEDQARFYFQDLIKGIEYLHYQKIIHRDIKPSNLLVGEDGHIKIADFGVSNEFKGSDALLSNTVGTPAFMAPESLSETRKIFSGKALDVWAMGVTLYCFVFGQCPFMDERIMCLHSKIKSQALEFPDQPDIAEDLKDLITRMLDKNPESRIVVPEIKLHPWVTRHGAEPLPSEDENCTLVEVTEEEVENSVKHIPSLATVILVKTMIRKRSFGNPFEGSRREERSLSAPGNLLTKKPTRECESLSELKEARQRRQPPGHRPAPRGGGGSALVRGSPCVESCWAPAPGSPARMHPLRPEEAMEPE
Sequence of Src (P12931 whole entry, looked up, species assumed): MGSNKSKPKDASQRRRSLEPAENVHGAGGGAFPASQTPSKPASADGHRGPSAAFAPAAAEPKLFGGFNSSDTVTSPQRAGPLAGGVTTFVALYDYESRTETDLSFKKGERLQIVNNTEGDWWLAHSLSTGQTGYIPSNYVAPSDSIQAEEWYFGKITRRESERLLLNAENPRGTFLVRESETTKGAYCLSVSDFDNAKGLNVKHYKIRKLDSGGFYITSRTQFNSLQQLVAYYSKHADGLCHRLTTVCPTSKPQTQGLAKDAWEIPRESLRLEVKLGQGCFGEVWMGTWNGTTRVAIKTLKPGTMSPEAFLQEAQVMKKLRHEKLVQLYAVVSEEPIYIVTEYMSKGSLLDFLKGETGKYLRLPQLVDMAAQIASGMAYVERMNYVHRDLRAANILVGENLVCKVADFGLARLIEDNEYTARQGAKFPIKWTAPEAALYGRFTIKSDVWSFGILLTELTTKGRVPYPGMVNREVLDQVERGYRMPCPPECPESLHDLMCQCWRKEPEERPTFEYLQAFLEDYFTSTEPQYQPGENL
Sequence of PAK2 (Q13177 whole entry, species assumed): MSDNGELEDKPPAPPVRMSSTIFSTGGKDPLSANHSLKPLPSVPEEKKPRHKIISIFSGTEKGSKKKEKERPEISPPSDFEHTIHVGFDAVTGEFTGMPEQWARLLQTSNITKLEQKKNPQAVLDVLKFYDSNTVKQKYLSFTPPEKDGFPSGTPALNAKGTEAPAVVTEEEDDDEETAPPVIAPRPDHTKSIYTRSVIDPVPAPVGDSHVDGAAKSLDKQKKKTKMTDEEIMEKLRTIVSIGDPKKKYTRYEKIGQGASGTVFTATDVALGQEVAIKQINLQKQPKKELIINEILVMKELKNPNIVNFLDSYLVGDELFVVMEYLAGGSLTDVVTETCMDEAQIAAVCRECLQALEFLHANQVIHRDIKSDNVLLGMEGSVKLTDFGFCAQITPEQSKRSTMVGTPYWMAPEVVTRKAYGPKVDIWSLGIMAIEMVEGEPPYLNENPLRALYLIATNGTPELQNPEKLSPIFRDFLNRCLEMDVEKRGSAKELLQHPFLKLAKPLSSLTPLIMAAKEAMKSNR
Sequence of MEKK1 (Q13233 whole entry, species assumed): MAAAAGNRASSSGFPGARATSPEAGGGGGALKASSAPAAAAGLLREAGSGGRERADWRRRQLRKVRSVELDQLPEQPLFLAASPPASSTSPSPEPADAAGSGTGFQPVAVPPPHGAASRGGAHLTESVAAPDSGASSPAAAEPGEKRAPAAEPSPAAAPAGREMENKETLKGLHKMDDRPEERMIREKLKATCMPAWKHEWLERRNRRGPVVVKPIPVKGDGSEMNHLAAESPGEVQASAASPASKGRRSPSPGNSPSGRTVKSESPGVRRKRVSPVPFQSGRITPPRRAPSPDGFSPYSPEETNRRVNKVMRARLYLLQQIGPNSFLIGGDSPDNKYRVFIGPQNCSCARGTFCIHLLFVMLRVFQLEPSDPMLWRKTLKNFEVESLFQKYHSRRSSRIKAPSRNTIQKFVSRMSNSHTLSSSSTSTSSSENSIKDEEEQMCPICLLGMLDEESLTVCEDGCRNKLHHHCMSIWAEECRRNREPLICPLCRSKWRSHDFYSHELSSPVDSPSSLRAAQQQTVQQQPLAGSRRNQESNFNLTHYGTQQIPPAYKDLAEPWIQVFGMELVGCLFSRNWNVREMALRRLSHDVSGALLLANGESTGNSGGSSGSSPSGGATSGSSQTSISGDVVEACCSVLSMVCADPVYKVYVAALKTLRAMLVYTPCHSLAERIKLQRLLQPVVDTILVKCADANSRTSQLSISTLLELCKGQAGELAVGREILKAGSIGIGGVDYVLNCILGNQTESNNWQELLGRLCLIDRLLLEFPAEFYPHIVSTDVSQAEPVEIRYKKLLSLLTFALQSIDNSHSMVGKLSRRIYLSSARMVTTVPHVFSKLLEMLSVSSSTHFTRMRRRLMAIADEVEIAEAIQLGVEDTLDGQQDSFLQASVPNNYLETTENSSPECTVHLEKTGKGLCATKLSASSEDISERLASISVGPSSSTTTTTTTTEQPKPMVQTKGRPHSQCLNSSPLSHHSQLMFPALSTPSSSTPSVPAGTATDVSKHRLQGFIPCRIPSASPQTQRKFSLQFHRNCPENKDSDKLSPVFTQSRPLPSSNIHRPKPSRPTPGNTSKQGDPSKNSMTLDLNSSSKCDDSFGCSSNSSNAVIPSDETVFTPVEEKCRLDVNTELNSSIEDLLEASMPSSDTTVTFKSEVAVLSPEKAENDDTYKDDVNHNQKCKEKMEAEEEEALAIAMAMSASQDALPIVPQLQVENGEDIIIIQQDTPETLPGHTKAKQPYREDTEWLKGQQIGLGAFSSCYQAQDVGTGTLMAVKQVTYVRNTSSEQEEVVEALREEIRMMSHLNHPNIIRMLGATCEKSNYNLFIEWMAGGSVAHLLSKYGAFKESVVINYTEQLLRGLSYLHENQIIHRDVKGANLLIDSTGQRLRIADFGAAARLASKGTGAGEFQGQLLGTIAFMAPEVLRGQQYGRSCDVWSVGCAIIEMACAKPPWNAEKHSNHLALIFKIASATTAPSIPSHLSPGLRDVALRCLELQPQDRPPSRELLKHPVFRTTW
Sequence of TAO1 (Q7L7X3 whole entry): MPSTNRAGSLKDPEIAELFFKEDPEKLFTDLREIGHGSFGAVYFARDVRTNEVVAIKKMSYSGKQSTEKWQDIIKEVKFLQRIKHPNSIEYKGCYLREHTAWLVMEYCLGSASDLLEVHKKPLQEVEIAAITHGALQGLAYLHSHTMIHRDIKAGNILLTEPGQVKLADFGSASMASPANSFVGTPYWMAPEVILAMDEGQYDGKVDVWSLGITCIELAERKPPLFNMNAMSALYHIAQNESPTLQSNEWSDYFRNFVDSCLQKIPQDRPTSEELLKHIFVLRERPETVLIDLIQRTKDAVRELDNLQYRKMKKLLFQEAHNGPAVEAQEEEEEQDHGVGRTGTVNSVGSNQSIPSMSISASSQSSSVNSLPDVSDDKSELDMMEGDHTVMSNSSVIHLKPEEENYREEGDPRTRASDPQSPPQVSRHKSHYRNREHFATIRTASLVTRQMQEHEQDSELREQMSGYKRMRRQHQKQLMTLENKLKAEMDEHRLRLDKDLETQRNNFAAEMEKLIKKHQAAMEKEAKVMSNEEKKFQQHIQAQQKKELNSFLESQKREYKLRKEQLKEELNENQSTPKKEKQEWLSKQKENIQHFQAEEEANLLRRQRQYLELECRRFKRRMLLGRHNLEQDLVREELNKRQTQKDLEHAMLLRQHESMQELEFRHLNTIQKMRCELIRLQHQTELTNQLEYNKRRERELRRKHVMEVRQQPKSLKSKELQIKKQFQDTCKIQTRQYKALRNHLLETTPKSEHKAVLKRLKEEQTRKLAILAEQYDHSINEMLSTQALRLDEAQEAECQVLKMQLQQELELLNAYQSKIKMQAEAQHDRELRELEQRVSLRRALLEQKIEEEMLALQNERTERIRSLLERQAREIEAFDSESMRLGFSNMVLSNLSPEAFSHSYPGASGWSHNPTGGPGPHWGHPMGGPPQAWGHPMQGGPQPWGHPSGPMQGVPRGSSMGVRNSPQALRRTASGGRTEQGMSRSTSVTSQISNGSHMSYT
Sequence of MST4 (Q9P289 whole entry, species assumed): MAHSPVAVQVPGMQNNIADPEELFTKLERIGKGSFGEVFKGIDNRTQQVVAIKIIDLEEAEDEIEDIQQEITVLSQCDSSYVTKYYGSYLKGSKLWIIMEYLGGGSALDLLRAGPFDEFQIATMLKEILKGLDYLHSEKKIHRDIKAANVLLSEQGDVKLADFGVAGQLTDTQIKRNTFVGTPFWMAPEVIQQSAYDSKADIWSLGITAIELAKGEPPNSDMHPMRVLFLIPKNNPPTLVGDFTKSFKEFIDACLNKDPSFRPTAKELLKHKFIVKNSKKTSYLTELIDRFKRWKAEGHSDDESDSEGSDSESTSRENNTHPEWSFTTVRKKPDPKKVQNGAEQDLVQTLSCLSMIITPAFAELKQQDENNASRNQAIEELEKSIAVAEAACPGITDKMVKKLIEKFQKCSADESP
Sequence of NEK2a (P51955 whole entry, species assumed): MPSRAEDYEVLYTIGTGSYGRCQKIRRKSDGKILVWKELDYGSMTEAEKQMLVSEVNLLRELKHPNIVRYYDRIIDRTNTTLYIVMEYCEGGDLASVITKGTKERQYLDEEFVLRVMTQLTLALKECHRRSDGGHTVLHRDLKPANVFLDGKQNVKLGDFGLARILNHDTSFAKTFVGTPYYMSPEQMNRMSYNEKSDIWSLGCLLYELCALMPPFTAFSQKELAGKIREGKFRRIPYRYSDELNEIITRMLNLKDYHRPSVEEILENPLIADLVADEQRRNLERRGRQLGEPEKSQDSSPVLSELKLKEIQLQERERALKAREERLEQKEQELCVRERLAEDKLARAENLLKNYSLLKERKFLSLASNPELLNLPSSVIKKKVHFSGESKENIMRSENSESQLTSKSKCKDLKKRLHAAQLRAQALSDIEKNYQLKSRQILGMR

Compound: COc1ccc2sc(-c3cncc(NC(C)=O)c3)nc2c1 [4-93, N-(5-(5-Methoxybenzo[d]thiazol-2-yl)pyridin-3-yl)acetamide]
- inhibition at 1 µM [1]: 0%
- inhibition at 1 µM [2]: 0%
- inhibition at 1 µM [3]: 0%
- inhibition at 1 µM [4]: 0%
- inhibition at 1 µM [5]: 0%
- inhibition at 1 µM [6]: 0%
- inhibition at 1 µM [7]: 8%
- inhibition at 1 µM [8]: 0%
- inhibition at 1 µM [9]: 0%
- inhibition at 1 µM [10]: 0%
- inhibition at 1 µM [11]: 0%
- inhibition at 1 µM [12]: 0%
- inhibition at 1 µM [13]: 0%
- inhibition at 1 µM [14]: 0%
- inhibition at 1 µM [15]: 0%
- inhibition at 1 µM [16]: 0%
- inhibition at 1 µM [17]: 0%
- inhibition at 1 µM [18]: 0%
- inhibition at 1 µM [19]: 0%
- inhibition at 1 µM [20]: 0%
- inhibition at 1 µM [21]: 11%
- inhibition at 1 µM [22]: 0%
- inhibition at 1 µM [23]: 0%
- inhibition at 1 µM [24]: 12%
- inhibition at 1 µM [25]: 0%
- inhibition at 1 µM [26]: 0%
- inhibition at 1 µM [27]: 0%
- inhibition at 1 µM [28]: 0%
- inhibition at 1 µM [29]: 3%
- inhibition at 1 µM [30]: 0%
- inhibition at 1 µM [31]: 0%
- inhibition at 1 µM [32]: 0%
- inhibition at 1 µM [33]: 0%
- inhibition at 1 µM [34]: 0%
- inhibition at 1 µM [35]: 0%
- inhibition at 1 µM [36]: 0%
- inhibition at 1 µM [37]: 0%
- inhibition at 1 µM [38]: 10%
- inhibition at 1 µM [39]: 0%
- inhibition at 1 µM [40]: 0%
- inhibition at 1 µM [41]: 1%
- inhibition at 1 µM [42]: 0%

Compound: CS(=O)(=O)Nc1cncc(-c2nc3cc(O)ccc3s2)c1 [4-99, N-(5-(5-Hydroxybenzo[d]thiazol-2-yl)pyridin-3-yl)methanesulfonamide]
- inhibition at 1 µM [1]: 0%
- inhibition at 1 µM [2]: 0%
- inhibition at 1 µM [3]: 0%
- inhibition at 1 µM [4]: 0%
- inhibition at 1 µM [5]: 0%
- inhibition at 1 µM [6]: 0%
- inhibition at 1 µM [7]: 0%
- inhibition at 1 µM [8]: 0%
- inhibition at 1 µM [9]: 0%
- inhibition at 1 µM [10]: 0%
- inhibition at 1 µM [11]: 0%
- inhibition at 1 µM [12]: 0%
- inhibition at 1 µM [13]: 0%
- inhibition at 1 µM [14]: 0%
- inhibition at 1 µM [15]: 6%
- inhibition at 1 µM [16]: 0%
- inhibition at 1 µM [17]: 0%
- inhibition at 1 µM [18]: 0%
- inhibition at 1 µM [19]: 0%
- inhibition at 1 µM [20]: 0%
- inhibition at 1 µM [21]: 0%
- inhibition at 1 µM [22]: 0%
- inhibition at 1 µM [23]: 0%
- inhibition at 1 µM [24]: 3%
- inhibition at 1 µM [25]: 0%
- inhibition at 1 µM [26]: 24%
- inhibition at 1 µM [27]: 0%
- inhibition at 1 µM [28]: 0%
- inhibition at 1 µM [29]: 0%
- inhibition at 1 µM [30]: 0%
- inhibition at 1 µM [31]: 0%
- inhibition at 1 µM [32]: 0%
- inhibition at 1 µM [33]: 0%
- inhibition at 1 µM [34]: 0%
- inhibition at 1 µM [35]: 0%
- inhibition at 1 µM [36]: 0%
- inhibition at 1 µM [37]: 0%
- inhibition at 1 µM [38]: 0%
- inhibition at 1 µM [39]: 0%
- inhibition at 1 µM [40]: 0%
- inhibition at 1 µM [41]: 0%
- inhibition at 1 µM [42]: 0%

Reference: patent US10927106B2, “Benzothiazole derivatives as DYRK1 inhibitors” (PHARMASUM THERAPEUTICS AS, priority 2017, dated 2021)
